Like-named read-outs stand apart in the source and are kept apart here.
Tests used:
Assay in all cases: KiNativ assay
Type in all cases: binding
NEK3 = NEK3 (Homo sapiens (Human), UniProt P51956); details: H929 live cell
Method: (§1) Biochemical IC50s of the compounds of the present disclosure against various kinases were measured in a KiNativ assay. Compounds were screened in duplicate at 10 μM in H929 live cell. IC50 was measured via Mass spectroscopy (MS).

IRAK1 = IRAK1 (Homo sapiens (Human), UniProt P51617); details: H929 live cell
Method: as §1

JAK3 domain2 = JAK3 domain2 (Homo sapiens (Human), UniProt P52333); details: H929 live cell
Method: as §1

Erk1 = Erk1 (Homo sapiens (Human), UniProt P27361); details: H929 live cell
Method: as §1

PKR = PKR (Homo sapiens (Human), UniProt P19525); details: H929 live cell
Method: as §1

HPK1 = HPK1 (Homo sapiens (Human), UniProt Q92918); details: H929 live cell
Method: as §1

GSK3A = GSK3A (Homo sapiens (Human), UniProt P49840); details: H929 live cell
Method: as §1

TYK2 domain2 = TYK2 domain2 (Homo sapiens (Human), UniProt P29597); details: H929 live cell
Method: as §1

PKCi = PKCi (Homo sapiens (Human), UniProt P41743); details: H929 live cell
Method: as §1

CK1a = CK1a (Homo sapiens (Human), UniProt P48729); details: H929 live cell
Method: as §1

CDK7 = CDK7 (Homo sapiens (Human), UniProt P50613); details: H929 live cell
Method: as §1

CLK2 = CLK2 (Homo sapiens (Human), UniProt P49760); details: H929 live cell
Method: as §1

MASTL = MASTL (Homo sapiens (Human), UniProt Q96GX5); details: H929 live cell
Method: as §1

p38a = p38a (Homo sapiens (Human), UniProt Q16539); details: H929 live cell, range class, read-out: % inhibition
Summary of the method: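 H929 live-cell screen at 10 μM, run in duplicate. Kinase occupancy was assessed via the KiNativ platform, with IC50 determined by mass spectrometry.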

MPSK1 = MPSK1 (Homo sapiens (Human), UniProt O75716); details: H929 live cell
Method: as §1

MAST3 = MAST3 (Homo sapiens (Human), UniProt O60307); details: H929 live cell
Method: as §1

p70S6K = p70S6K (Homo sapiens (Human), UniProt P23443); details: H929 live cell
Method: as §1

MST1 = MST1 (Homo sapiens (Human), UniProt Q13043); details: H929 live cell
Method: as §1

SNRK = SNRK (Homo sapiens (Human), UniProt Q9NRH2); details: H929 live cell
Method: as §1

NuaK1 = NuaK1 (Homo sapiens (Human), UniProt O60285); details: H929 live cell
Method: as §1

MARK3 = MARK3 (Homo sapiens (Human), UniProt P27448); details: H929 live cell
Method: as §1

MAP2K3 = MAP2K3 (Homo sapiens (Human), UniProt P46734); details: H929 live cell
Method: as §1

p38d, p38g = details: H929 live cell; for % inhibition: 10 μM, range class
Method: as §1

[1] = range class, read-out: % inhibition

GSK3A, sequence (P49840 whole entry): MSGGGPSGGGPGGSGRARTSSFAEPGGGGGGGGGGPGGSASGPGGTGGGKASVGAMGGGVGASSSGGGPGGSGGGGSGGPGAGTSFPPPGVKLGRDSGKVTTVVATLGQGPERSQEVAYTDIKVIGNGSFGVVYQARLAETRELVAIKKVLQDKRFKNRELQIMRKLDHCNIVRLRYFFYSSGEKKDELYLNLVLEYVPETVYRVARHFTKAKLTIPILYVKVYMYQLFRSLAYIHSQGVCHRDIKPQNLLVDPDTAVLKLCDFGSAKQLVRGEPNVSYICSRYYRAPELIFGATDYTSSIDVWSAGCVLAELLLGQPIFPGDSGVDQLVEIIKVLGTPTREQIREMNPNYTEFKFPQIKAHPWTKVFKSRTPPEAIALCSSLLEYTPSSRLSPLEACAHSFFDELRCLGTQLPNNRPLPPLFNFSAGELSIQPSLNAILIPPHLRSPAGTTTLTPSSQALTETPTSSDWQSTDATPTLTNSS
PKR, sequence (P19525 whole entry): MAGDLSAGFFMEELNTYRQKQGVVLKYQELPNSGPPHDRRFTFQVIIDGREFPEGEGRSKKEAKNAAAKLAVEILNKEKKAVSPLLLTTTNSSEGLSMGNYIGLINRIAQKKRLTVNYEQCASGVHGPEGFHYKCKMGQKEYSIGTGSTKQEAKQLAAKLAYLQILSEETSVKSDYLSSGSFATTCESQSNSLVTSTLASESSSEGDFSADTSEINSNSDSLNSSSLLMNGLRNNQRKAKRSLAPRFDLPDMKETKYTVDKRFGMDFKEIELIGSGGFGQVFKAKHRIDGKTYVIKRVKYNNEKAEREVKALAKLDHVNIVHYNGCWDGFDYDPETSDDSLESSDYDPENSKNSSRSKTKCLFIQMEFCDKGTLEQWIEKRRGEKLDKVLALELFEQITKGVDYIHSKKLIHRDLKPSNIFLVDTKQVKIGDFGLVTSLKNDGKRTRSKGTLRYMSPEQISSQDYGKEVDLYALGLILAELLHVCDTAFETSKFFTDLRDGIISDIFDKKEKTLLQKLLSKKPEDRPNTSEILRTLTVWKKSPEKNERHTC
CLK2, sequence (P49760 whole entry): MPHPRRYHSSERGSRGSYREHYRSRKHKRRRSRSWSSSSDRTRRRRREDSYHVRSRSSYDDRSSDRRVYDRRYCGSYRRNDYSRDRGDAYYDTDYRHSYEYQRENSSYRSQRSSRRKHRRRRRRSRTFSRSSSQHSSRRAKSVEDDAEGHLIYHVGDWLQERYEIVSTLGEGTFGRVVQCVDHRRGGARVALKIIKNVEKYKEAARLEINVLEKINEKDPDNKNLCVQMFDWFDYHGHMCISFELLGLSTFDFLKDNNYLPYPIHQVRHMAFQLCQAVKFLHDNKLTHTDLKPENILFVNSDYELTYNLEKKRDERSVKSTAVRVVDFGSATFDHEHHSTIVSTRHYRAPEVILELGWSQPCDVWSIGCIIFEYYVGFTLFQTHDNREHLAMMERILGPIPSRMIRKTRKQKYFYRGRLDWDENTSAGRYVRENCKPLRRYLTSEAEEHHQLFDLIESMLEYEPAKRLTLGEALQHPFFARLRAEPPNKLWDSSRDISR
HPK1, sequence (Q92918 whole entry): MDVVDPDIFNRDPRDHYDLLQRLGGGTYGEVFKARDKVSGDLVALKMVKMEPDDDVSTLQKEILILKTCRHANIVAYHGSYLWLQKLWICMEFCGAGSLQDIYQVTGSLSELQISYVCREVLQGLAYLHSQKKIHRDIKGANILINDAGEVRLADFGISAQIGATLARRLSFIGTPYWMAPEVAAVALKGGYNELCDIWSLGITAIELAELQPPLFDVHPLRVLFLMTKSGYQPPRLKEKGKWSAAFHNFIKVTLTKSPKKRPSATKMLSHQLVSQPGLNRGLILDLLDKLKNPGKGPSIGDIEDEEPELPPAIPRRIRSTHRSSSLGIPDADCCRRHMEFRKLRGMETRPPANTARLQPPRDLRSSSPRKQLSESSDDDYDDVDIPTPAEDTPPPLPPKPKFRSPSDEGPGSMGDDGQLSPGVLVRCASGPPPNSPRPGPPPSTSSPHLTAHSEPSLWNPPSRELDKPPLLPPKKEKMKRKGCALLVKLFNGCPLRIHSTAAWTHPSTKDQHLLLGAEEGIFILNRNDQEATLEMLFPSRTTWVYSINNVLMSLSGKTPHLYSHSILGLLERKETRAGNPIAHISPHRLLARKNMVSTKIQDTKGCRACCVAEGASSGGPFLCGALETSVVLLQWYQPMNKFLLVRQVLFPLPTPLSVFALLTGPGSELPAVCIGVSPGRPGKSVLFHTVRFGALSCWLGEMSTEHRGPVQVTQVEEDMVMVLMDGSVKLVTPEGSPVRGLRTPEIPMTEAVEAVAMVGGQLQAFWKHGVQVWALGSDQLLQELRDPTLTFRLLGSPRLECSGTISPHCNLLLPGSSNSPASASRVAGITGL
IRAK1, sequence (P51617 whole entry): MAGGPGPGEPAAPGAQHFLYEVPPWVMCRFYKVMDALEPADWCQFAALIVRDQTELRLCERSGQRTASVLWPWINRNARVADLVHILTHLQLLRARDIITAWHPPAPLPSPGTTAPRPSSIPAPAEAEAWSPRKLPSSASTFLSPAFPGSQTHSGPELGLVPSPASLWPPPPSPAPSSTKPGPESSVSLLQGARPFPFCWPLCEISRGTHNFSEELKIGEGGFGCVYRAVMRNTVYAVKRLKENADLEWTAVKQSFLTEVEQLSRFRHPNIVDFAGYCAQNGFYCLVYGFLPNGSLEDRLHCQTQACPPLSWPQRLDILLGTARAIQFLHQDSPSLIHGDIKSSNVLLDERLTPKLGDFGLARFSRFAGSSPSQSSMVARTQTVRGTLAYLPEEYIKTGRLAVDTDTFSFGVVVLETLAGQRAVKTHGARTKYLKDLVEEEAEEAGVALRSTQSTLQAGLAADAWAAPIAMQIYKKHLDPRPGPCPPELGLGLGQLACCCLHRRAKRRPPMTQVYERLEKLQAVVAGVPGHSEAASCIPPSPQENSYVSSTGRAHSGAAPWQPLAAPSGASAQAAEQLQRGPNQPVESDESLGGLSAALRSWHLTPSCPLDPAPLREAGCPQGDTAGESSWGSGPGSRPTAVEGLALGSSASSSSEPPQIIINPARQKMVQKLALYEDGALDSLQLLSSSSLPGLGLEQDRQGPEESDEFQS
MARK3, sequence (P27448 whole entry): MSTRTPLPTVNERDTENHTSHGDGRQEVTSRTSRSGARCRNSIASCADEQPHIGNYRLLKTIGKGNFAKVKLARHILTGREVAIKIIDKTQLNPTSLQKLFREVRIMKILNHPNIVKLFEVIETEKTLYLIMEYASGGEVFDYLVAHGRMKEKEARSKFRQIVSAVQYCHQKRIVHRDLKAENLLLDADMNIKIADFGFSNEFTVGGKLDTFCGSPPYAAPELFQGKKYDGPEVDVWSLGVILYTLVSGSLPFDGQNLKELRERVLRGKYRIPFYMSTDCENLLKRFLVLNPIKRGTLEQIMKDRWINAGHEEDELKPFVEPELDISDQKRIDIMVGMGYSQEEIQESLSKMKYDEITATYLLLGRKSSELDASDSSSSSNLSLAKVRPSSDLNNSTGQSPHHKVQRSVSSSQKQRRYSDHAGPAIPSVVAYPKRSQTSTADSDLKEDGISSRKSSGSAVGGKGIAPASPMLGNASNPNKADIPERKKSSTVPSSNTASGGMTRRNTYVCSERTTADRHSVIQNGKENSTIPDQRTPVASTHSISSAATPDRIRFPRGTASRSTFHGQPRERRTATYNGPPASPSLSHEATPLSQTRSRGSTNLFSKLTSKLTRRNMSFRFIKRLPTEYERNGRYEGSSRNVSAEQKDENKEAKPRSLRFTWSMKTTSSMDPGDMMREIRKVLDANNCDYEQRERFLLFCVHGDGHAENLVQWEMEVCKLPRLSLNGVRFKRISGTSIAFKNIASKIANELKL
MAP2K3, sequence (P46734 whole entry): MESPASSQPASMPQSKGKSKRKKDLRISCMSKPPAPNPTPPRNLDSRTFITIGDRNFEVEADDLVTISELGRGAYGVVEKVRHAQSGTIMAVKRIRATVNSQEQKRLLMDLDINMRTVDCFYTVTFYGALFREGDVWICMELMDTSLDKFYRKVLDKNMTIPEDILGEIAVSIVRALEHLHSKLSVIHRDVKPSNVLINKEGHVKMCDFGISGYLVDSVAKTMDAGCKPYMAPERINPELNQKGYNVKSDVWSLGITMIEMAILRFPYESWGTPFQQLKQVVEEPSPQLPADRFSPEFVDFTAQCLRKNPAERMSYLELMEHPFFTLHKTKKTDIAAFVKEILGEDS
CK1a, sequence (P48729 whole entry): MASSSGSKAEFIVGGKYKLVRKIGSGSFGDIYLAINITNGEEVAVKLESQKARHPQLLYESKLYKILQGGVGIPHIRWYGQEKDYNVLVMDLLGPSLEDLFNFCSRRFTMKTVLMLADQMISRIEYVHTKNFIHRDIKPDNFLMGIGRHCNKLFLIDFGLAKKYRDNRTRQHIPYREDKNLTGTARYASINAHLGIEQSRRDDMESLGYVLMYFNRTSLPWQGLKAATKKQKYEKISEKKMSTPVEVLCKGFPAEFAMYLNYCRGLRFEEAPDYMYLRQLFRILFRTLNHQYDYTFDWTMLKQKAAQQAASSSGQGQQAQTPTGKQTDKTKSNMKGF
MST1, sequence (Q13043 whole entry): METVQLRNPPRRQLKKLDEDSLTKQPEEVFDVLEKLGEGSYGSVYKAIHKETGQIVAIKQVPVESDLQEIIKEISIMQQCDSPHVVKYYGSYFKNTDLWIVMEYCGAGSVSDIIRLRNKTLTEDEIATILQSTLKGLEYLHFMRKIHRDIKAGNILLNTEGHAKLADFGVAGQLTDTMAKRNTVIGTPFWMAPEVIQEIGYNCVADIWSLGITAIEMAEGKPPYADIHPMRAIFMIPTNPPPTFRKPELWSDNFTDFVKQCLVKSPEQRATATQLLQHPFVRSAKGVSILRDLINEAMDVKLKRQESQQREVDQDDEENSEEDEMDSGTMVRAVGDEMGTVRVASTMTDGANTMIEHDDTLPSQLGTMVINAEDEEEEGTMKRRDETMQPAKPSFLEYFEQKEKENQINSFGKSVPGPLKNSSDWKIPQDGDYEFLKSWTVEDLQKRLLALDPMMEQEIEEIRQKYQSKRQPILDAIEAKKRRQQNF

Nc1ncc(-c2ccc(NS(=O)(=O)C3CC3)cc2F)cc1-c1ccc2c(c1)CCNC2=O [Compound I-51, N-(4-(6-amino-5-(1-oxo-1,2,3,4-tetrahydroisoquinolin-6-yl)pyridin-3-yl)-3-fluorophenyl) cyclopropanesulfonamide]
inhibition at 10 µM (NEK3; [1]): 0%
inhibition at 10 µM (NEK3; read-out: inhibition (10 μM)): -13%
inhibition at 10 µM (IRAK1; [1]): 50 to 75%
inhibition at 10 µM (IRAK1; read-out: inhibition (10 μM)): 65%
inhibition at 10 µM (JAK3 domain2; [1]): 0%
inhibition at 10 µM (JAK3 domain2; read-out: inhibition (10 μM)): 13.4%
inhibition at 10 µM (Erk1; [1]): 0%
inhibition at 10 µM (Erk1; read-out: inhibition (10 μM)): 29.2%
inhibition at 10 µM (PKR; [1]): 0%
inhibition at 10 µM (PKR; read-out: inhibition (10 μM)): 3.8%
inhibition at 10 µM (HPK1; [1]): 75 to 90%
inhibition at 10 µM (HPK1; read-out: inhibition (10 μM)): 83.5%
inhibition at 10 µM (GSK3A; [1]): 75 to 90%
inhibition at 10 µM (GSK3A; read-out: inhibition (10 μM)): 85.2%
inhibition at 10 µM (TYK2 domain2; [1]): 0%
inhibition at 10 µM (TYK2 domain2; read-out: inhibition (10 μM)): -23.9%
inhibition at 10 µM (PKCi; [1]): 0%
inhibition at 10 µM (PKCi; read-out: inhibition (10 μM)): -49.1%
inhibition at 10 µM (CK1a; [1]): 0%
inhibition at 10 µM (CK1a; read-out: inhibition (10 μM)): -34.7%
inhibition at 10 µM (CDK7; [1]): 0%
inhibition at 10 µM (CDK7; read-out: inhibition (10 μM)): 17.4%
inhibition at 10 µM (CLK2; [1]): 50 to 75%
inhibition at 10 µM (CLK2; read-out:): 65.3%
inhibition at 10 µM (MASTL; [1]): 0%
inhibition at 10 µM (MASTL; read-out: inhibition (10 μM)): 14.6%
inhibition at 10 µM (p38a): 0%
inhibition at 10 µM (MPSK1; [1]): 35 to 40%
inhibition at 10 µM (MPSK1; read-out: inhibition (10 μM)): 43.9%
inhibition at 10 µM (MAST3; [1]): 0%
inhibition at 10 µM (MAST3; read-out: inhibition (10 μM)): 7%
inhibition at 10 µM (p70S6K; [1]): 0%
inhibition at 10 µM (p70S6K; read-out: inhibition (10 μM)): -21.6%
inhibition at 10 µM (MST1; [1]): > 90%
inhibition at 10 µM (MST1; read-out: inhibition (10 μM)): 96.3%
inhibition at 10 µM (SNRK; [1]): 0%
inhibition at 10 µM (SNRK; read-out: inhibition (10 μM)): -26.2%
inhibition (10 μM) (NuaK1): 68.8%
inhibition at 10 µM (NuaK1; [1]): 50 to 75%
inhibition at 10 µM (NuaK1; read-out: inhibition (10 μM)): 71.9%
inhibition at 10 µM (MARK3; [1]): 0%
inhibition at 10 µM (MARK3; read-out: inhibition (10 μM)): 4.8%
inhibition at 10 µM (MAP2K3; [1]): 0%
inhibition at 10 µM (MAP2K3; read-out: inhibition (10 μM)): 0.9%
% inhibition (p38d, p38g): 0.0%
inhibition (10 μM) (p38d, p38g): 2.3%

Nc1ncc(-c2ccc(NS(=O)(=O)C3CC3)cc2OC2CCCCC2)cc1-c1ccc2c(c1)CCNC2=O [Compound I-65, N-(4-(6-amino-5-(1-oxo-1,2,3,4-tetrahydroisoquinolin-6-yl)pyridin-3-yl)-3-(cyclohexyloxy)phenyl) cyclopropanesulfonamide]
inhibition at 10 µM (NEK3; [1]): 0%
inhibition at 10 µM (NEK3; read-out: inhibition (10 μM)): -18.4%
inhibition at 10 µM (IRAK1; [1]): 0%
inhibition at 10 µM (IRAK1; read-out: inhibition (10 μM)): 27.8%
inhibition at 10 µM (JAK3 domain2; [1]): 50 to 75%
inhibition at 10 µM (JAK3 domain2; read-out: inhibition (10 μM)): 52.1%
inhibition at 10 µM (Erk1; [1]): 0%
inhibition at 10 µM (Erk1; read-out: inhibition (10 μM)): -30.7%
inhibition at 10 µM (PKR; [1]): 0%
inhibition at 10 µM (PKR; read-out: inhibition (10 μM)): -7.6%
inhibition at 10 µM (HPK1; [1]): > 90%
inhibition at 10 µM (HPK1; read-out: inhibition (10 μM)): 95.5%
inhibition at 10 µM (GSK3A; [1]): 75 to 90%
inhibition at 10 µM (GSK3A; read-out: inhibition (10 μM)): 86%
inhibition at 10 µM (TYK2 domain2; [1]): 0%
inhibition at 10 µM (TYK2 domain2; read-out: inhibition (10 μM)): -8.4%
inhibition at 10 µM (PKCi; [1]): 0%
inhibition at 10 µM (PKCi; read-out: inhibition (10 μM)): -41.2%
inhibition at 10 µM (CK1a; [1]): 0%
inhibition at 10 µM (CK1a; read-out: inhibition (10 μM)): -65.1%
inhibition at 10 µM (CDK7; [1]): 0%
inhibition at 10 µM (CDK7; read-out: inhibition (10 μM)): 29.9%
inhibition at 10 µM (CLK2; [1]): 50 to 75%
inhibition at 10 µM (CLK2; read-out:): 69.4%
inhibition at 10 µM (MASTL; [1]): 0%
inhibition at 10 µM (MASTL; read-out: inhibition (10 μM)): -9.6%
inhibition at 10 µM (p38a): 0%
inhibition at 10 µM (MPSK1; [1]): 50 to 75%
inhibition at 10 µM (MPSK1; read-out: inhibition (10 μM)): 72.8%
inhibition at 10 µM (MAST3; [1]): 0%
inhibition at 10 µM (MAST3; read-out: inhibition (10 μM)): -7.5%
inhibition at 10 µM (p70S6K; [1]): 0%
inhibition at 10 µM (p70S6K; read-out: inhibition (10 μM)): 11.1%
inhibition at 10 µM (MST1; [1]): > 90%
inhibition at 10 µM (MST1; read-out: inhibition (10 μM)): 96.7%
inhibition at 10 µM (SNRK; [1]): 0%
inhibition at 10 µM (SNRK; read-out: inhibition (10 μM)): 1.1%
inhibition (10 μM) (NuaK1): 61.5%
inhibition at 10 µM (NuaK1; [1]): 50 to 75%
inhibition at 10 µM (NuaK1; read-out: inhibition (10 μM)): 66.8%
inhibition at 10 µM (MARK3; [1]): 0%
inhibition at 10 µM (MARK3; read-out: inhibition (10 μM)): -22.7%
inhibition at 10 µM (MAP2K3; [1]): 0%
inhibition at 10 µM (MAP2K3; read-out: inhibition (10 μM)): -6.1%
% inhibition (p38d, p38g): 0.0%
inhibition (10 μM) (p38d, p38g): −8.5%
